Results: patent US7109192B2, “Substituted imidazo-pyridinones and imidazo-pyridazinones, the preparation thereof and their use as pharmaceutical compositions” (Boehringer Ingelheim Pharma GmbH & Co KG, priority 2002, dated 2006)
Counter-ions that a name gives are not always drawn.

Tests used:
[1] = system: rats; assay: Tolerability in rats after oral administration; type: in vivo, rat; settings: 10 mg/kg
[2] = molecular target: T1, DPP-IV (Homo sapiens, UniProt P27487); assay: DPP-IV inhibition assay with Caco-2 cell extract, AFC substrate, fluorescence; type: biochemical; settings: extract of human colon carcinoma cell line Caco-2 as DPP IV source; 100 μM AFC substrate; 60 minutes, ambient temperature
T1 construct: an extract of human colon carcinoma cell line Caco-2 is used as the DPP IV source; endogenous in cells; host or cells: Caco-2 (human colon carcinoma), differentiated to induce DPP-IV expression; Nonidet-P40 solubilised extract
Method: The cell extract was obtained from cells solubilised in a buffer (10 mM Tris HCl, 0.15 M NaCl, 0.04 t.i.u. aprotinin, 0.5% Nonidet-P40, pH 8.0) by centrifuging at 35,000 g for 30 minutes at 4° C. (to remove cell debris).
The DPP-IV assay was carried out as follows:
50 μl substrate solution (AFC; AFC is amido-4-trifluoromethylcoumarin), final concentration 100 μM, were placed in black microtitre plates. 20 μl of assay buffer (final concentrations 50 mM Tris HCl pH 7.8, 50 mM NaCl, 1% DMSO) was pipetted in. The reaction was started by adding 30 μl of solubilised Caco-2 protein (final concentration 0.14 μg of protein per well). The test substances to be investigated were typically added prediluted in 20 μl, and the volume of assay buffer was then reduced accordingly. The reaction was carried out at ambient temperature, incubating for 60 minutes. […] Blank readings (corresponding to 0% activity) were obtained in mixtures without any Caco-2 protein (volume replaced by assay buffer), control values (corresponding to 100% activity) were obtained in mixtures with no substance added.

T1 sequence (P27487 whole entry): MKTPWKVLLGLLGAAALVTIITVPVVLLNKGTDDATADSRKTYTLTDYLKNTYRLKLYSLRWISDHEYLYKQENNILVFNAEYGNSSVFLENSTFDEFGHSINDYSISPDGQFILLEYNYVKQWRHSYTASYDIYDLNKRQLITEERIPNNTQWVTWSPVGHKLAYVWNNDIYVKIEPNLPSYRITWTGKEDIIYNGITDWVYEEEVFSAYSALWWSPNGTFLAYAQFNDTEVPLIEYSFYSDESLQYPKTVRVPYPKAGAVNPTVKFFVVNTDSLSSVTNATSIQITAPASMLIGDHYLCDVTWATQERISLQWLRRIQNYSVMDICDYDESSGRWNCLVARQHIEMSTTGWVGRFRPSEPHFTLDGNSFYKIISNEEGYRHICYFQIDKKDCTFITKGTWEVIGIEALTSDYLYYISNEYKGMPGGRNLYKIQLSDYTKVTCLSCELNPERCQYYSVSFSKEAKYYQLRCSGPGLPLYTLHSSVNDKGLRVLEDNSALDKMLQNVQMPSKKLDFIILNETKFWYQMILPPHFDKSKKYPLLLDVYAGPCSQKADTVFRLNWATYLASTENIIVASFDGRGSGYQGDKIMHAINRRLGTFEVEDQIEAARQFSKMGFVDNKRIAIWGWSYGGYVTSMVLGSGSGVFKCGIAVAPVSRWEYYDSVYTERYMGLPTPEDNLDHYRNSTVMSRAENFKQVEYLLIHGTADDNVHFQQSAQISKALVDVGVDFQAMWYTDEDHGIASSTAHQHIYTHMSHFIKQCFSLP

IC50 [2]	SMILES	changes in the animals' behaviour [1]
9.8 nM	CC#CCn1c(N2CCC[C@@H](N)C2)nc2cnn(Cc3ccc4nonc4c3)c(=O)c21 [Example 202, 2-((R)-3-amino-piperidin-1-yl)-3-(but-2-ynyl)-5-(benzo[1,2,5]oxadiazol-5-ylmethyl)-3,5-dihydro-imidazo[4,5-d]pyridazin-4-one]	–
5.4 nM	Cc1cc2ccccc2c(Cn2ncc3nc(N4CCC[C@@H](N)C4)n(Cc4ccccc4Cl)c3c2=O)n1 [Example 205, 2-((R)-3-amino-piperidin-1-yl)-3-(2-chlorobenzyl)-5-(3-methyl-isoquinolin-1-ylmethyl)-3,5-dihydro-imidazo[4,5-d]pyridazin-4-one]	–
10 nM	CC#CCn1c(N2CCC[C@@H](N)C2)nc2cnn(Cc3cn(C)c(=O)c4ccccc34)c(=O)c21 [Example 217, 2-((R)-3-amino-piperidin-1-yl)-3-(but-2-ynyl)-5-(2-methyl-2H-isoquinolin-1-on-4-ylmethyl)-3,5-dihydro-imidazo[4,5-d]pyridazin-4-one]	–

Continued, compound first:

SMILES	IC50 [2]	changes in the animals' behaviour [1]
CC#CCn1c(N2CCCC(N)C2)nc2cnn(Cc3cccc4ccccc34)c(=O)c21 (stereo not shown) [Example 2, 2-(3-amino-piperidin-1-yl)-3-(but-2-ynyl)-5-(naphthalen-1-ylmethyl)-3,5-dihydro-imidazo[4,5-d]pyridazin-4-one]	–	no changes in the animals' behaviour could be detected
CC#CCn1c(N2CCCC(N)C2)nc2cnn(Cc3ccc4nccnc4c3)c(=O)c21 (stereo not shown) [Example 182, 2-(3-amino-piperidin-1-yl)-3-(but-2-ynyl)-5-(quinoxalin-6-ylmethyl)-3,5-dihydro-imidazo[4,5-d]pyridazin-4-one]	1.2 nM	–
CC#CCn1c(N2CCC[C@@H](N)C2)nc2cnn(Cc3ccc(F)c4ccccc34)c(=O)c21 [Example 191, 2-((R)-3-amino-piperidin-1-yl)-3-(but-2-ynyl)-5-(4-fluoronaphthalen-1-ylmethyl)-3,5-dihydro-imidazo[4,5-d]pyridazin-4-one hydrochloride]	14 nM	–
CC#CCn1c(N2CCC[C@@H](N)C2)nc2cnn(Cc3nc4cc(C(F)(F)F)ccc4s3)c(=O)c21 [Example 195, 2-((R)-3-amino-piperidin-1-yl)-3-(but-2-ynyl)-5-(5-trifluoromethylbenzothiazol-2-ylmethyl)-3,5-dihydro-imidazo[4,5-d]pyridazin-4-one hydrochloride]	17 nM	–
